The nature of assay [1]: Intein inhibitors as potential Tuberculosis drugs, a cytotoxicity screen. [Related pubchem assays (depositor defined):AID2221, AID2223, AID434968, AID435010, AID449749, AID449750, AID489010]. Type of assay: functional.
Assay [2] concerns the target T1, Replicative DNA helicase DnaB (Mycobacterium tuberculosis, UniProt P9WMR3).
T1 sequence (P9WMR3 whole entry): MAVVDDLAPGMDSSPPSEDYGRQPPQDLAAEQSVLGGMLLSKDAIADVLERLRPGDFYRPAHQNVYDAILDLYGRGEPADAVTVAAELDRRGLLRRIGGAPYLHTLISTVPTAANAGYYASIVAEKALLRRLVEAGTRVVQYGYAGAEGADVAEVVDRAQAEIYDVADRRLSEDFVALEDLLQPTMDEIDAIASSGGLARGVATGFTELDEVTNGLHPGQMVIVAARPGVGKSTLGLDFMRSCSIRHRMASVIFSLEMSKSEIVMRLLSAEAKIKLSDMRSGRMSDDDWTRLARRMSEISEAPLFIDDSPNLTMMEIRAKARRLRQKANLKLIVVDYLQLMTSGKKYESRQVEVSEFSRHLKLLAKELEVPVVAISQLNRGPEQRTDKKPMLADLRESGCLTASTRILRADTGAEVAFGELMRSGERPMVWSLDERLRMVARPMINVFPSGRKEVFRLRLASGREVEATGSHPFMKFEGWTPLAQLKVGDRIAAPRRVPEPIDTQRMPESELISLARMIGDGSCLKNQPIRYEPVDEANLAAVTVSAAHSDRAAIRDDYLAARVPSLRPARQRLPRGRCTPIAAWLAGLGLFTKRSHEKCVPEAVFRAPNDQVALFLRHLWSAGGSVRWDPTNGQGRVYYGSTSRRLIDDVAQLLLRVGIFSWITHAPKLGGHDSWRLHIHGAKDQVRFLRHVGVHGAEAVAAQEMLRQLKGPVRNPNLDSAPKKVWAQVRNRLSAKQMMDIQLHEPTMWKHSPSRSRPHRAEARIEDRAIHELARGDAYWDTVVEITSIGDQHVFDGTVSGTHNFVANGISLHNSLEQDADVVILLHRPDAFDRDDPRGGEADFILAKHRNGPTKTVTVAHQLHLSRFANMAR
Put plainly: DnaB intein splicing inhibitors, dose response, biochemical, cell-free fluorescence (AID 449749). Type of assay: functional.

A further assay concerns the target T2, Protein RecA (Mycobacterium tuberculosis, UniProt P9WHJ3).
T2 sequence (P9WHJ3 whole entry): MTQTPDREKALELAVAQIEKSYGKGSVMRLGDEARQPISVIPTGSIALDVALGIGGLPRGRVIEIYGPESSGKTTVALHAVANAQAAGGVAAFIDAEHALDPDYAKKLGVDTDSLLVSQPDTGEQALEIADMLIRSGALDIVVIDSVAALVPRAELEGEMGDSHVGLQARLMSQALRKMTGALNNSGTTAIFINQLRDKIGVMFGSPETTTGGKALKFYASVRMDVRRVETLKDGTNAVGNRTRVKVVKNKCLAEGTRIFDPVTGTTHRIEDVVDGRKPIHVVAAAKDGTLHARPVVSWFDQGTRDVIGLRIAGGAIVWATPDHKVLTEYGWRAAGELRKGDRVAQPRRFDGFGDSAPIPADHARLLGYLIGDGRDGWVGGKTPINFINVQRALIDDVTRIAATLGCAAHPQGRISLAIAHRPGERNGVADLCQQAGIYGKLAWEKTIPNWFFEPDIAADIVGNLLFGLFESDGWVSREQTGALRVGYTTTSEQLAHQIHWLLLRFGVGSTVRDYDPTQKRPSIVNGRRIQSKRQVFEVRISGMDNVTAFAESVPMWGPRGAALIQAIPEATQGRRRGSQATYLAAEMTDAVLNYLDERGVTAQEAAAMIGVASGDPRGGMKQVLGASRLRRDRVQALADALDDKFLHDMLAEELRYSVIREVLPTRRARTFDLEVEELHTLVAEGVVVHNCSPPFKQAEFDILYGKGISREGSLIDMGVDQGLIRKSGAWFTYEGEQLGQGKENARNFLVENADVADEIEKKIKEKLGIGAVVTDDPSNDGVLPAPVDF
Put plainly: Fluorescence Cell-Free Homogeneous Dose Retest to Identify Inhibitors of RecA-Intein Splicing Activity. [Related pubchem assays (depositor defined):AID2097, AID2223, AID489010, AID492950]. In kind it is functional.

A further assay concerns the target Trypsin (Sus scrofa, UniProt P00761). Put plainly: trypsin protease activity blockade – biochemical, quenched peptide fluorescence, cherry-pick, selectivity assay for Rce1 protease inhibitor project, dose response (AID 488789).
Assay [3] deals with T3, CAAX prenyl protease 2 (Saccharomyces cerevisiae S288c, UniProt Q03530).
T3 sequence (Q03530 whole entry): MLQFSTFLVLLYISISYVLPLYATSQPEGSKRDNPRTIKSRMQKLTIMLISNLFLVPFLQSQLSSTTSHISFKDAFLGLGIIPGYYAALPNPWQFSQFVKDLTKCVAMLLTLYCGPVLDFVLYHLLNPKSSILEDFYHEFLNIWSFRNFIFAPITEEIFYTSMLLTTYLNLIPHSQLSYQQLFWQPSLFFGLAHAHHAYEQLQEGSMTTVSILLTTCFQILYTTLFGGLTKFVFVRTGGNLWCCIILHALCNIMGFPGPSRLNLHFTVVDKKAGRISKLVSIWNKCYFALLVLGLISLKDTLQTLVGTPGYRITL
Type of assay: biochemical.

Assay [4] has as its target T4, CAAX prenyl protease 2 (Homo sapiens, UniProt Q9Y256).
T4 sequence (Q9Y256 whole entry): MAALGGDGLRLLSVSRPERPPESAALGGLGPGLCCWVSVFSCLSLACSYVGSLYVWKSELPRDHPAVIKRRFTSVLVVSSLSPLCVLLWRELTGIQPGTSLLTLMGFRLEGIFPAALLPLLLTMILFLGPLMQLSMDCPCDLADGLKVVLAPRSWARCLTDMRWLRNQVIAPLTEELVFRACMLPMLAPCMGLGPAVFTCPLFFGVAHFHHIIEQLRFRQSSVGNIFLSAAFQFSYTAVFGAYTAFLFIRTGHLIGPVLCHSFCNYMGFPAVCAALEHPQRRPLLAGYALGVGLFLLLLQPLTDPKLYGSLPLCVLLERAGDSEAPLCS
Kind of assay: inhibition of Ras-converting CAAX protease Rce1 – biochemical, yeast membranes, quenched-peptide fluorescence, cherry-pick, dose response (AID 588849).

Assay [5] is described as follows: NIH-3T3 fibroblast cytotoxicity, dose response, cytotoxicity control, cell-based, fluorescence, Alamar Blue, secondary assay (AID 2327).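 Also: NIH-3T3 mouse fibroblasts cultured with fluconazole at 8 µg/mL.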 Type of assay: functional. (The colour change of resazurin is a common sign of viable cells or microbes.)
The nature of assay [6]: fluconazole-exposed Candida albicans growth modulators – fluorescence, retest, confirmation (AID 2467). Type of assay: functional, cell-based.
The target of assay [7] is T5, Adenosylmethionine-8-amino-7-oxononanoate aminotransferase (Mycobacterium tuberculosis, UniProt P9WQ81).
T5 sequence (P9WQ81 whole entry): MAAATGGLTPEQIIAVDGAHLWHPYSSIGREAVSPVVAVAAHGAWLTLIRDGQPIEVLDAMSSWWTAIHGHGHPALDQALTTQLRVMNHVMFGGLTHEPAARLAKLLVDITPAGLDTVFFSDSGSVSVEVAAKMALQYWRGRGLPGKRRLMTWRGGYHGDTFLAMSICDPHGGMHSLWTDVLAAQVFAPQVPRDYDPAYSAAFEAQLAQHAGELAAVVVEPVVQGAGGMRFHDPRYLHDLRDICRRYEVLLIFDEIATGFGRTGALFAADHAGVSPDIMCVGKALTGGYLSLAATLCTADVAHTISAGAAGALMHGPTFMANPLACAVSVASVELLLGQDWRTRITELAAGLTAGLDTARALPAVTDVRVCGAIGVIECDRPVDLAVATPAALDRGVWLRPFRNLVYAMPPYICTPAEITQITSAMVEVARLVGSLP
Put plainly: Mycobacterium tuberculosis BioA enzyme inhibitor Measured in Biochemical System Using Plate Reader - 2163-02_Inhibitor_Dose_CherryPick_Activity. In kind it is functional, Mycobacterium tuberculosis UT205.

The target of the next assay is T6, Hexokinase (Trypanosoma brucei, UniProt Q38C41).
T6 sequence (Q38C41 whole entry): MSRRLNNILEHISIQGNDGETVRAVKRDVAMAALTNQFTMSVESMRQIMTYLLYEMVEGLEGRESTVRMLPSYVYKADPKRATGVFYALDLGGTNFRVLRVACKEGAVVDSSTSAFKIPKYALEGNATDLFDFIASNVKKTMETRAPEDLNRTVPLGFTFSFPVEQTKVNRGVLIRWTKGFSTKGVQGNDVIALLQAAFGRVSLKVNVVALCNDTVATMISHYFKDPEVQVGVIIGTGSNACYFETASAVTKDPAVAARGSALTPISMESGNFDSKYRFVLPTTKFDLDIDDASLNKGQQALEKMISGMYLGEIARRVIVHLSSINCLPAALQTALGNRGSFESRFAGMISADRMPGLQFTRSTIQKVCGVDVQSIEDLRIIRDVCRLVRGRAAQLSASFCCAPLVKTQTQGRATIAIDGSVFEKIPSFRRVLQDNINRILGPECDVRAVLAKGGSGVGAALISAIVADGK
Kind of assay: Confirmation assay for inhibitors of Trypanosoma brucei hexokinase 1-Analogue-first series. [Related pubchem assays (depositor defined):AID1430, AID1632, AID2516, AID2560, AID2579, AID2600, AID449725, AID492951]. Type of assay: functional.

Assay [8] can be described thus: cells. In kind it is functional, cell-based.
Assay [9] in a line: cells. In kind it is functional, cell-based. This is another data set of the same source.
Assay [10] can be described thus: THP-1 cell cytotoxicity, dose response, cytotoxicity control for non-replicating M. tuberculosis project (AID 489025). In kind it is functional.
Assay [11] is described as follows: HepG2 cell cytotoxicity, dose response, cytotoxicity control for non-replicating M. tuberculosis project (AID 489018). Conditions: Mycobacterium tuberculosis. In kind it is functional.
The nature of assay [12]: Vero E6 cell cytotoxicity, dose response, cytotoxicity control for non-replicating M. tuberculosis project, secondary assay (AID 492998). To be noted: Vero C1008. In kind it is functional, VeroE6.
For the next assay, the system named is INS1. Kind of assay: INS-1E survival protection against cytokine death – cell-based, luminescence, retest, dose response (AID 449756).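 Also: cell death triggered by IL-1 beta plus TNF-alpha plus IFN-gamma mixture; protective hits raise ATP signal compared with cytokine alone wells.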 Type of assay: functional. Conditions: Rattus norvegicus.
Assay [13] deals with 26S proteasome non-ATPase regulatory subunit 14 (Homo sapiens, UniProt O00487). Put plainly: inhibition of proteasome subunit RPN11 – biochemical, fluorescence polarization, uHTS hits, confirmation (AID 602368). Type of assay: functional.
Assay [14] concerns the target 72 kDa type IV collagenase (Homo sapiens, UniProt P08253). Put plainly: Dose Response validation of uHTS RPN11 inhibitor hits using a MMP-2 Fluorescence assay. Type of assay: functional.
A further assay has as its target Prothrombin (Bos taurus, UniProt P00735). Put plainly: thrombin protease inhibitors – biochemical, fluorescence polarization, uHTS hits, dose response (AID 602369). In kind it is functional. In general terms: In fluorescence polarisation assays a small probe gives low polarisation when free and higher when bound to something large.
Another assay deals with Albumin (Bos taurus, UniProt P02769). Kind of assay: Counterscreen for inhibitors of T-cell receptor (TCR)-CD3 interaction: Fluorescence-based biochemical high throughput dose response assay to identify inhibitors of T-cell receptor (TCR)-CD3 interaction using a TAMRA-labeled BSA probe. Type of assay: functional. In general terms: The purpose of a counterscreen is to sort out artefacts and off-target activity.

Structures are written as SMILES. Calls of active or inactive are those of the source. Where only a bound is given, the exact number is not on record here.

26S proteasome non-ATPase regulatory subunit 14, sequence (O00487 whole entry): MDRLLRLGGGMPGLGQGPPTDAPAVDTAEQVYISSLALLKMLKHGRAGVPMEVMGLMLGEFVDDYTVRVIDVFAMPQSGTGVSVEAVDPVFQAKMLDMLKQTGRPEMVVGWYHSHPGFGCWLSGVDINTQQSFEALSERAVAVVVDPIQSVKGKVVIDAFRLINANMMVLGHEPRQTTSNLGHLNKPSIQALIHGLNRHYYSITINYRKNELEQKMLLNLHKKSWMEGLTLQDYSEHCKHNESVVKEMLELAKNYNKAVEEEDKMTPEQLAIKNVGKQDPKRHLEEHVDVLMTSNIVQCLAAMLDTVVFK
72 kDa type IV collagenase, sequence (P08253 whole entry): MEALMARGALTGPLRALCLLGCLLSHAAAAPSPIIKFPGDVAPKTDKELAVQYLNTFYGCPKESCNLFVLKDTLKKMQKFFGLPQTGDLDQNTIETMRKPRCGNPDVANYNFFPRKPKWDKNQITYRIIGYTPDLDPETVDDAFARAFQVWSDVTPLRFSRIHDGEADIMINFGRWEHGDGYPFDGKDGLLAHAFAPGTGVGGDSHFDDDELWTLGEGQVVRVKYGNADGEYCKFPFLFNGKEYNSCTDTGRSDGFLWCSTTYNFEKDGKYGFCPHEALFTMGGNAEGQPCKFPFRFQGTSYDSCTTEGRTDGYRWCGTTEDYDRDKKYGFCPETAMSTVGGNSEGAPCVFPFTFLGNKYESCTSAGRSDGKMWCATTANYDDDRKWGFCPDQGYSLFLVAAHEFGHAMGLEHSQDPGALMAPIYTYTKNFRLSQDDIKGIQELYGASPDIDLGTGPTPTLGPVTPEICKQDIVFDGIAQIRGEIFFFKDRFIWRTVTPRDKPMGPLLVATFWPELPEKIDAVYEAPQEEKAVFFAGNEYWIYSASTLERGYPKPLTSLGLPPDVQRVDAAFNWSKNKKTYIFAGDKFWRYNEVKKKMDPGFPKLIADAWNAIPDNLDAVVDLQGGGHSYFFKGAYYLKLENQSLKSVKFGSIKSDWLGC
Trypsin, sequence (P00761 whole entry): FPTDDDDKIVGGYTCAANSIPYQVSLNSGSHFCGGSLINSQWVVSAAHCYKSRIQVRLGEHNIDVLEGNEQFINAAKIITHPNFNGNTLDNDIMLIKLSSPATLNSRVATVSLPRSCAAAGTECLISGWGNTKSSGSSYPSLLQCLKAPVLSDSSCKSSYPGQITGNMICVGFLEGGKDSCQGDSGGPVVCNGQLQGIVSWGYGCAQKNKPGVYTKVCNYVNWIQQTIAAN
Albumin, sequence (P02769 whole entry): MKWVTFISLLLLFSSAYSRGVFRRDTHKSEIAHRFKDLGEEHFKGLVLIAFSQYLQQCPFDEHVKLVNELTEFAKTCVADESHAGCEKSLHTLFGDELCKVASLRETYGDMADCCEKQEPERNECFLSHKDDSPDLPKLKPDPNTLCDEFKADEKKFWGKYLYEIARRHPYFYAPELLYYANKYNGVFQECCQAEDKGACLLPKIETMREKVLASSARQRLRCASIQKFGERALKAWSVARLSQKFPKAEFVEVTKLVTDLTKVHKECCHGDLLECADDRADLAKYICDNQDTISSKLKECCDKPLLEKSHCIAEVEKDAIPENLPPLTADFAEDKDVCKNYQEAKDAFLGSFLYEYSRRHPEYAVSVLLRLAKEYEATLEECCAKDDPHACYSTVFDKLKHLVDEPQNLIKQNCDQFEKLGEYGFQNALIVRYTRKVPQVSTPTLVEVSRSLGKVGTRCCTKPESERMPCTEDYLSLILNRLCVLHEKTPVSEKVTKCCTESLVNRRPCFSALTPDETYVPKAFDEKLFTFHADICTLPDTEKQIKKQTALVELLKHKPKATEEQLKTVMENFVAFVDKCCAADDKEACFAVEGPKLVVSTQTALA

As usually defined, the CC50 is the concentration giving 50% cytotoxicity. As a reminder, the AC50 is the concentration at which the activity in the assay is half-maximal. For orientation: EC50 means the concentration giving half of the maximal effect. As for `COC(=O)c1sc(-c2ccc(Cl)cc2)cc1NC(=O)/C=C/C(=O)O`, the CC50 in assay [1] is 24.2 µM (active). Also, the AC50 in assay [2] was 4.02 µM (active). Besides, the EC50 at Protein RecA was 2.44 µM (active).
As to `O=C(O)c1ccccc1NCCO`, the AC50 at Trypsin was 8.2 µM (active); at CAAX prenyl protease 2 [3], 16.1 µM (active); on CAAX prenyl protease 2 [4], 5.81 µM (active).
For the compound `O=[N+]([O-])c1ccc(C[n+]2c(-c3ccccc3)cc(-c3ccccc3)cc2-c2ccccc2)cc1.[O-][Cl+3]([O-])([O-])[O-]`, the EC50 in assay [5] is 23.7 µM (active); in assay [6] it was 2.75 µM (active). Moreover, the AC50 at CAAX prenyl protease 2 [3] is 81.6 µM (active); at CAAX prenyl protease 2 [4], 68.4 µM (active); in [7], 4.55 µM (active).
As usually defined, the IC50 is the concentration at which inhibition is half-maximal. In the case of `O=C(Cn1sc2ccccc2c1=O)Nc1ccccc1F`, the IC50 on Hexokinase is 5.8 µM (active).
On the same count and under the same terms, in the case of `COc1ccc(C(=O)Nc2cc(Cl)c(Br)cc2C(=O)O)cc1` it was 4.59 µM (active); in that of `COc1cc(C(=O)Nc2cc(Cl)ccc2C(=O)O)cc(OC)c1OC`, > 25 µM (inactive).
As to `O=C(N/N=C/c1cc(Br)cc(Cl)c1O)c1ccc2c(c1)OCO2`, the EC50 is > 150 µM (inactive) in [5], 22.1 µM (active) in “cells [8]”, 1.03 µM (active) in [6] and > 350 µM (not active) in “cells [9]”. The half-maximal cytotoxic concentration (CC50) is 1.95 µM (active) in [10], 16.1 µM (active) in assay [11] and 7.35 µM (active) in [12]. The AC50 in the assay with INS1 is 4.16 µM (active). Further, the IC50 is 15.5 µM (active) in assay [13], 65.4 µM (active) in [14], 33.8 µM (active) on Prothrombin and > 94.1 µM (inactive) on Albumin.
